Legend:
CYP74D1 [1] = molecular target: T1, CYP74D1 (Solanum lycopersicum, UniProt Q9FPM6); assay: Kinetic assays with affinity purified CYP74D-6H (decrease in A234); conditions: for estimated turnover rate (kcat): purified CYP74D-6H, assuming the total protein content to be active; for Km: read-out: apparent Km, recombinant DES (summary in description)
T1 sequence (Q9FPM6 whole entry): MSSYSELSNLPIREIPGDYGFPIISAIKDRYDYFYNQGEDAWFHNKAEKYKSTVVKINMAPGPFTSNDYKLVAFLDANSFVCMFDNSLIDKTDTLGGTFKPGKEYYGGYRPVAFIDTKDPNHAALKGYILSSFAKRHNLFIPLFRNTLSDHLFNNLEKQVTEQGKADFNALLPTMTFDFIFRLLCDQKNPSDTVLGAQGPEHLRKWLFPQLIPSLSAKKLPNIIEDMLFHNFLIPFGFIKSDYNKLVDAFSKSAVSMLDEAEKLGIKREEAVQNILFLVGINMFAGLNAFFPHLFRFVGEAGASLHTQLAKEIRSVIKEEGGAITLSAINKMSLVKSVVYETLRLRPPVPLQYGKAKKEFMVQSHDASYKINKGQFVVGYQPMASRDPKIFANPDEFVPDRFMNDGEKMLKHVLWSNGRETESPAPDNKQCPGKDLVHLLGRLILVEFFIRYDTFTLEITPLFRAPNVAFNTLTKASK

CYP74D1 [2] = molecular target: T2, CYP74D1 (Solanum lycopersicum, UniProt Q9FPM6)
T2 sequence (Q9FPM6 10-478 limits assumed): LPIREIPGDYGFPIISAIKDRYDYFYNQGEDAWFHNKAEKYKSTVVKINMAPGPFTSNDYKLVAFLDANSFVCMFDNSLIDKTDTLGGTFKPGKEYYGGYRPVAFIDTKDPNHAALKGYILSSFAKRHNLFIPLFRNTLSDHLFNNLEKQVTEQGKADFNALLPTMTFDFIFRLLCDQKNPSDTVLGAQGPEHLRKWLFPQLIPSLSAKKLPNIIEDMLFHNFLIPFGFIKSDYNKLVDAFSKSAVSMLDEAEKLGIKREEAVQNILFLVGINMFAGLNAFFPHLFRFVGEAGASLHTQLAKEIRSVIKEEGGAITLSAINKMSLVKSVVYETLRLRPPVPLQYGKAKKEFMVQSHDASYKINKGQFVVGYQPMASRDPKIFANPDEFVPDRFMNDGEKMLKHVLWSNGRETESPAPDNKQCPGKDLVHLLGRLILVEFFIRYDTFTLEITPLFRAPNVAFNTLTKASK

CYP74D1 [3] = molecular target: T1, CYP74D1; remark: listed apart in the source

SMILES | estimated turnover rate (kcat) (CYP74D1 [1]) | Km (CYP74D1 [1]) | metabolism by extracts containing 6H-CYP74D (in words) (CYP74D1 [2]) | metabolized at % of the rate observed for 9-HPOD (CYP74D1 [3])
CCCCC/C=C\C=C\[C@H](CCCCCCCC(=O)O)OO [9-HPOD, 9(S)-hydroperoxy-10(E),12(Z)-octadecadienoic acid] | 890 s⁻¹ | ~67 µM | efficiently metabolized | 
CC/C=C\C/C=C\C=C\[C@H](CCCCCCCC(=O)O)OO [9-HPOT, 9(S)-hydroperoxy-10(E),12(Z),15(Z)-octadecatrienoic acid] | 500 s⁻¹ | ~48 µM | efficiently metabolized | 
CCCCC[C@@H](/C=C/C=C\CCCCCCCC(=O)O)OO [13-HPOD, 13(S)-hydroperoxy-9(Z),11(E)-octadecadienoic acid] |  |  | poor substrates | 
CC/C=C\C[C@@H](/C=C/C=C\CCCCCCCC(=O)O)OO [13-HPOT, 13(S)-hydroperoxy-9(Z),11(E),15(Z)-octadecatrienoic acid] |  |  | poor substrates | < 5%

Source: patent publication US8017386B2, “Divinyl ether synthase gene and protein, and uses thereof” (priority 2000, dated 2011)
